Measured values from ChEMBL document CHEMBL3797052 (Eur J Med Chem, 2016).

tested on: not listed separately; experiment: Antiproliferative activity against human BT549 cells assessed as cell growth at 10^-7 M after 48 hrs by sulforhodamine B assay; format: functional; settings: BT-549, 48 h, read-out: Activity

SMILES | growth at 0.1 µM [%]
CNC(=O)c1cc(Oc2ccc3nc(NC(=O)Nc4ccc(Cl)c(Cl)c4)sc3c2)ccn1 | 104

tested on: not listed separately; experiment: Antiproliferative activity against human NCI-ADR-RES cells assessed as cell growth at 10^-6 M after 48 hrs by sulforhodamine B assay; format: functional; settings: read-out: Activity

SMILES | growth at 1 µM [%]
CNC(=O)c1cc(Oc2ccc3nc(NC(=O)Nc4ccc(Cl)c(Cl)c4)sc3c2)ccn1 | 103

tested on: HT-29; experiment: Antiproliferative activity against human HT-29 cells assessed as growth inhibition after 48 hrs by sulforhodamine B assay; format: functional; settings: HT-29, 48 h

SMILES | GI50 [nM] | TGI [µM]
CNC(=O)c1cc(Oc2ccc3nc(NC(=O)Nc4ccc(Cl)c(Cl)c4)sc3c2)ccn1 | 2160 | 4.31

tested on: not listed separately; experiment: Antiproliferative activity against human PC3 cells assessed as cell growth at 10^-6 M after 48 hrs by sulforhodamine B assay; format: functional; settings: PC-3, 48 h, read-out: Activity

SMILES | growth at 1 µM [%]
CNC(=O)c1cc(Oc2ccc3nc(NC(=O)Nc4ccc(Cl)c(Cl)c4)sc3c2)ccn1 | 92

tested on: not listed separately; experiment: Antiproliferative activity against human OVCAR8 cells assessed as cell growth at 10^-7 M after 48 hrs by sulforhodamine B assay; format: functional; settings: OVCAR-8, 48 h, read-out: Activity

SMILES | growth at 0.1 µM [%]
CNC(=O)c1cc(Oc2ccc3nc(NC(=O)Nc4ccc(Cl)c(Cl)c4)sc3c2)ccn1 | 101

tested on: MDA-MB-231; experiment: Antiproliferative activity against human MDA-MB-231 cells assessed as cell growth at 10^-4 M after 48 hrs by sulforhodamine B assay; format: functional; settings: MDA-MB-231, 48 h, read-out: Activity

SMILES | growth at 100 µM [%]
CNC(=O)c1cc(Oc2ccc3nc(NC(=O)Nc4ccc(Cl)c(Cl)c4)sc3c2)ccn1 | -44

tested on: not listed separately; experiment: Antiproliferative activity against human SF295 cells assessed as growth inhibition after 48 hrs by sulforhodamine B assay; format: functional; settings: SF-295, 48 h

SMILES | GI50 [nM] | TGI [µM]
CNC(=O)c1cc(Oc2ccc3nc(NC(=O)Nc4ccc(Cl)c(Cl)c4)sc3c2)ccn1 | 1530 | 3.13

same assay, conditions: SF-295, 48 h, read-out: LC50 (the source's name)

SMILES | CC50 [µM]
CNC(=O)c1cc(Oc2ccc3nc(NC(=O)Nc4ccc(Cl)c(Cl)c4)sc3c2)ccn1 | 6.41

tested on: MCF7; experiment: Antiproliferative activity against human MCF7 cells assessed as growth inhibition after 48 hrs by sulforhodamine B assay; format: functional; settings: MCF7, 48 h

SMILES | GI50 [nM] | TGI [µM]
CNC(=O)c1cc(Oc2ccc3nc(NC(=O)Nc4ccc(Cl)c(Cl)c4)sc3c2)ccn1 | 2650 | > 100

same assay, conditions: MCF7, 48 h, read-out: LC50 (the source's name)

SMILES | CC50 [µM]
CNC(=O)c1cc(Oc2ccc3nc(NC(=O)Nc4ccc(Cl)c(Cl)c4)sc3c2)ccn1 | > 100

biological target: T1, CYP1A2 (Homo sapiens, UniProt P05177); experiment: Inhibition of recombinant human CYP1A2 assessed as remaining enzyme activity using CYP1A2 blue as substrate at 10 uM after 5 mins in presence of NADP by fluorescence plate reader analysis; format: ADME; settings: recombinant human CYP1A2, probe CYP1A2 blue, read-out: Activity
T1 sequence (P05177 whole entry): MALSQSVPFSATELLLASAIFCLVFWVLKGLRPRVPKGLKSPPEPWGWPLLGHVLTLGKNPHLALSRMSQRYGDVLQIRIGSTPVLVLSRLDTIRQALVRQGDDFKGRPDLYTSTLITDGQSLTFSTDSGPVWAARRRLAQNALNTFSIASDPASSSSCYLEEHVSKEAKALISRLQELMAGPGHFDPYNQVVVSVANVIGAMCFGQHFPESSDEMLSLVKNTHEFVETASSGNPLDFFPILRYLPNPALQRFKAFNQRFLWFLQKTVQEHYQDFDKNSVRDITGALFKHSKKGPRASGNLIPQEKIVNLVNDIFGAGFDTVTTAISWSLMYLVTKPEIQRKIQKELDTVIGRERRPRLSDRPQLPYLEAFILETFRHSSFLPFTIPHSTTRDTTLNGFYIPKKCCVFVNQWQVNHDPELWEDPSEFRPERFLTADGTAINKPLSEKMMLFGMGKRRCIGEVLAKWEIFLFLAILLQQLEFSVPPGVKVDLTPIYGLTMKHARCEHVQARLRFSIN

SMILES | activity at 5 min, 10 µM [%]
CNC(=O)c1cc(Oc2ccc3nc(NC(=O)Nc4ccc(Cl)c(Cl)c4)sc3c2)ccn1 | 104

tested on: not listed separately; experiment: Antiproliferative activity against human OVCAR4 cells assessed as growth inhibition after 48 hrs by sulforhodamine B assay; format: functional; settings: OVCAR-4, 48 h

SMILES | GI50 [nM] | TGI [µM]
CNC(=O)c1cc(Oc2ccc3nc(NC(=O)Nc4ccc(Cl)c(Cl)c4)sc3c2)ccn1 | 2060 | 4.03

same assay, conditions: OVCAR-4, 48 h, read-out: LC50 (the source's name)

SMILES | CC50 [µM]
CNC(=O)c1cc(Oc2ccc3nc(NC(=O)Nc4ccc(Cl)c(Cl)c4)sc3c2)ccn1 | 7.89

tested on: not listed separately; experiment: Antiproliferative activity against human RPMI8226 cells assessed as cell growth at 10^-6 M after 48 hrs by sulforhodamine B assay; format: functional; settings: RPMI-8226, 48 h, read-out: Activity

SMILES | growth at 1 µM [%]
CNC(=O)c1cc(Oc2ccc3nc(NC(=O)Nc4ccc(Cl)c(Cl)c4)sc3c2)ccn1 | 103

tested on: NCI-H522; experiment: Antiproliferative activity against human NCI-H522 cells assessed as growth inhibition after 48 hrs by sulforhodamine B assay; format: functional; settings: NCI-H522, 48 h

SMILES | GI50 [µM] | LC50 (concentration killing 50% of cells) [µM] | TGI [µM]
CNC(=O)c1cc(Oc2ccc3nc(NC(=O)Nc4ccc(Cl)c(Cl)c4)sc3c2)ccn1 | 4.09 | > 100 | > 100

tested on: HT-29; experiment: Antiproliferative activity against human HT-29 cells assessed as cell growth at 10^-6 M after 48 hrs by sulforhodamine B assay; format: functional; settings: HT-29, 48 h, read-out: Activity

SMILES | growth at 1 µM [%]
CNC(=O)c1cc(Oc2ccc3nc(NC(=O)Nc4ccc(Cl)c(Cl)c4)sc3c2)ccn1 | 106

tested on: not listed separately; experiment: Antiproliferative activity against human IGROV1 cells assessed as growth inhibition after 48 hrs by sulforhodamine B assay; format: functional; settings: IGROV-1, 48 h

SMILES | GI50 [nM] | TGI [µM]
CNC(=O)c1cc(Oc2ccc3nc(NC(=O)Nc4ccc(Cl)c(Cl)c4)sc3c2)ccn1 | 2550 | 6.75

same assay, conditions: IGROV-1, 48 h, read-out: LC50 (the source's name)

SMILES | CC50 [µM]
CNC(=O)c1cc(Oc2ccc3nc(NC(=O)Nc4ccc(Cl)c(Cl)c4)sc3c2)ccn1 | > 100

tested on: not listed separately; experiment: Antiproliferative activity against human UO31 cells assessed as growth inhibition after 48 hrs by sulforhodamine B assay; format: functional; settings: UO-31, 48 h

SMILES | GI50 [nM] | TGI [µM]
CNC(=O)c1cc(Oc2ccc3nc(NC(=O)Nc4ccc(Cl)c(Cl)c4)sc3c2)ccn1 | 2080 | 3.96

same assay, conditions: UO-31, 48 h, read-out: LC50 (the source's name)

SMILES | CC50 [µM]
CNC(=O)c1cc(Oc2ccc3nc(NC(=O)Nc4ccc(Cl)c(Cl)c4)sc3c2)ccn1 | 7.56

tested on: not listed separately; experiment: Antiproliferative activity against human SW620 cells assessed as cell growth at 10^-7 M after 48 hrs by sulforhodamine B assay; format: functional; settings: SW-620, 48 h, read-out: Activity

SMILES | growth at 0.1 µM [%]
CNC(=O)c1cc(Oc2ccc3nc(NC(=O)Nc4ccc(Cl)c(Cl)c4)sc3c2)ccn1 | 115

tested on: not listed separately; experiment: Antiproliferative activity against human OVCAR4 cells assessed as cell growth at 10^-7 M after 48 hrs by sulforhodamine B assay; format: functional; settings: OVCAR-4, 48 h, read-out: Activity

SMILES | growth at 0.1 µM [%]
CNC(=O)c1cc(Oc2ccc3nc(NC(=O)Nc4ccc(Cl)c(Cl)c4)sc3c2)ccn1 | 100

tested on: not listed separately; experiment: Antiproliferative activity against human LOXIMVI cells assessed as cell growth at 10^-8 M after 48 hrs by sulforhodamine B assay; format: functional; settings: LOX IMVI, read-out: Activity

SMILES | growth at 0.01 µM [%]
CNC(=O)c1cc(Oc2ccc3nc(NC(=O)Nc4ccc(Cl)c(Cl)c4)sc3c2)ccn1 | 95

tested on: not listed separately; experiment: Antiproliferative activity against human SNB19 cells assessed as cell growth at 10^-4 M after 48 hrs by sulforhodamine B assay; format: functional; settings: SNB-19, 48 h, read-out: Activity

SMILES | growth at 100 µM [%]
CNC(=O)c1cc(Oc2ccc3nc(NC(=O)Nc4ccc(Cl)c(Cl)c4)sc3c2)ccn1 | -74

tested on: not listed separately; experiment: Antiproliferative activity against human HL-60(TB) cells assessed as growth inhibition after 48 hrs by sulforhodamine B assay; format: functional; settings: HL-60, 48 h

SMILES | GI50 [µM] | TGI [µM]
CNC(=O)c1cc(Oc2ccc3nc(NC(=O)Nc4ccc(Cl)c(Cl)c4)sc3c2)ccn1 | > 100 | > 100

same assay, conditions: HL-60, 48 h, read-out: LC50 (the source's name)

SMILES | CC50 [µM]
CNC(=O)c1cc(Oc2ccc3nc(NC(=O)Nc4ccc(Cl)c(Cl)c4)sc3c2)ccn1 | > 100

tested on: SN12C; experiment: Antiproliferative activity against human SN12C cells assessed as cell growth at 10^-6 M after 48 hrs by sulforhodamine B assay; format: functional; settings: read-out: Activity

SMILES | growth at 1 µM [%]
CNC(=O)c1cc(Oc2ccc3nc(NC(=O)Nc4ccc(Cl)c(Cl)c4)sc3c2)ccn1 | 102

tested on: MCF7; experiment: Antiproliferative activity against human MCF7 cells assessed as cell growth at 10^-6 M after 48 hrs by sulforhodamine B assay; format: functional; settings: MCF7, 48 h, read-out: Activity

SMILES | growth at 1 µM [%]
CNC(=O)c1cc(Oc2ccc3nc(NC(=O)Nc4ccc(Cl)c(Cl)c4)sc3c2)ccn1 | 84

tested on: NCI-H460; experiment: Antiproliferative activity against human NCI-H460 cells assessed as cell growth at 10^-7 M after 48 hrs by sulforhodamine B assay; format: functional; settings: NCI-H460, 48 h, read-out: Activity

SMILES | growth at 0.1 µM [%]
CNC(=O)c1cc(Oc2ccc3nc(NC(=O)Nc4ccc(Cl)c(Cl)c4)sc3c2)ccn1 | 109

tested on: not listed separately; experiment: Antiproliferative activity against human SKOV3 cells assessed as cell growth at 10^-6 M after 48 hrs by sulforhodamine B assay; format: functional; settings: SK-OV-3, 48 h, read-out: Activity

SMILES | growth at 1 µM [%]
CNC(=O)c1cc(Oc2ccc3nc(NC(=O)Nc4ccc(Cl)c(Cl)c4)sc3c2)ccn1 | 117

tested on: M14; experiment: Antiproliferative activity against human M14 cells assessed as growth inhibition after 48 hrs by sulforhodamine B assay; format: functional; settings: M14, 48 h

SMILES | GI50 [nM] | TGI [µM]
CNC(=O)c1cc(Oc2ccc3nc(NC(=O)Nc4ccc(Cl)c(Cl)c4)sc3c2)ccn1 | 2130 | 4.74

same assay, conditions: M14, 48 h, read-out: LC50 (the source's name)

SMILES | CC50 [µM]
CNC(=O)c1cc(Oc2ccc3nc(NC(=O)Nc4ccc(Cl)c(Cl)c4)sc3c2)ccn1 | > 100

tested on: SK-MEL-28; experiment: Antiproliferative activity against human SK-MEL-28 cells assessed as cell growth at 10^-7 M after 48 hrs by sulforhodamine B assay; format: functional; settings: SK-MEL-28, 48 h, read-out: Activity

SMILES | growth at 0.1 µM [%]
CNC(=O)c1cc(Oc2ccc3nc(NC(=O)Nc4ccc(Cl)c(Cl)c4)sc3c2)ccn1 | 100

tested on: not listed separately; experiment: Antiproliferative activity against human PC3 cells assessed as cell growth at 10^-8 M after 48 hrs by sulforhodamine B assay; format: functional; settings: PC-3, 48 h, read-out: Activity

SMILES | growth at 0.01 µM [%]
CNC(=O)c1cc(Oc2ccc3nc(NC(=O)Nc4ccc(Cl)c(Cl)c4)sc3c2)ccn1 | 96

tested on: not listed separately; experiment: Antiproliferative activity against human SF539 cells assessed as cell growth at 10^-4 M after 48 hrs by sulforhodamine B assay; format: functional; settings: SF-539, 48 h, read-out: Activity

SMILES | growth at 100 µM [%]
CNC(=O)c1cc(Oc2ccc3nc(NC(=O)Nc4ccc(Cl)c(Cl)c4)sc3c2)ccn1 | -72

tested on: not listed separately; experiment: Antiproliferative activity against human UACC62 cells assessed as cell growth at 10^-6 M after 48 hrs by sulforhodamine B assay; format: functional; settings: UACC-62, 48 h, read-out: Activity

SMILES | growth at 1 µM [%]
CNC(=O)c1cc(Oc2ccc3nc(NC(=O)Nc4ccc(Cl)c(Cl)c4)sc3c2)ccn1 | 85
